Experimental data as given in patent US20160143946A1, “COMBINATION THERAPIES FOR TREATING CANCER” (priority 2014, published 2016).
Where two headings read alike, the source gives them in different places.

Legend:
Type in all cases: cell-based, human
[1] = test system: SW780 bladder cancer cell line; test: Cell viability by MTT incorporation, SW780 bladder cancer cells; conditions: read-out: SW780 IC50
Experimental: (§1) SW780 and HT1376 bladder cancer cell lines stained with anti-CD44 and anti-CD49f were examined by flow cytometry. Cells were treated with cisplatin, AR-42, sodium butyrate, valproic acid, and trichostatin A at concentrations indicated for 24 hours and cell viability was determined by MTT incorporation. The table denotes IC50s for SW780 and HT1376 cells to listed agents.
(§2) Bladder Cancer Cell Lines—SW780 and HT1376 cell lines were grown in RPMI with 10% fetal bovine serum at 37° C. with 5% CO2 and treated with cisplatin, AR-42, sodium butyrate, trichostatin A, and valproic acid at concentrations indicated.
(§3) SW780 and HT1376 cell lines were treated with cisplatin, AR-42, sodium butyrate, valproic acid, and trichostatin A at various concentrations and cell viability was determined by MTT incorporation (FIG. 1).

[2] = test system: HT1376 bladder cancer cell line; test: Cell viability by MTT incorporation, HT1376 bladder cancer cells; conditions: read-out: HT1376 IC50
Experimental: as §1, §2, §3

SW780 cells = test: Cisplatin / HDAC inhibitor combination, MTT survival with isobologram combination index, SW780; conditions: administered at their IC90s; SW780 and HT1376 cells (Table 3)
Experimental: Isobolograms were used to calculate combination indices to indicate synergy at IC50 and IC90, whereby CI<1 denotes synergy.
as §2
SW780 and HT1376 cells treated with cisplatin, AR-42, a combination cisplatin and AR-42 at a 5:1 ratio, a combination cisplatin and AR-42 in a 20:1 molar ratio, as assessed by MTT incorporation (FIG. 2).

[3] = Homo sapiens, SW780 cells, 24 hours treatment, MTT incorporation
[4] = Homo sapiens, HT-1376, HT1376 cells, 24 hours treatment, MTT incorporation
[5] = SW780 cells, 24 hours treatment, MTT incorporation
[6] = HT1376 cells, 24 hours treatment, MTT incorporation

Row | IC50 [1, 3] [µM] | IC50 [2, 4] [µM] | Compound | synergy with cisplatin (SW780 cells) | IC50 [1, 5] [µM] | IC50 [2, 6] [µM] | further results
1 | 1.41 | 1.4 | CC(C)[C@H](C(=O)Nc1ccc(C(=O)NO)cc1)c1ccccc1 [AR-42] | synergy | – | – | –
2 | – | – | N.N.[Cl][Pt][Cl] [Cisplatin] | – | 8.5 | 30.5 | –
3 | – | – | CCCC(=O)[O-].[Na+] [Sodium Butyrate] | synergy | – | – | IC50 ([1]; Homo sapiens, SW780, 24 h): 3780 µM; IC50 ([2]; Homo sapiens, HT-1376, 24 h): 8530 µM
4 | – | – | CC(/C=C/C(=O)NO)=C\[C@@H](C)C(=O)c1ccc(N(C)C)cc1 [Trichostatin A] | – | 0.25 | 0.12 | –
5 | 6040 | 7390 | CCCC(CCC)C(=O)O [Valproic Acid] | – | – | – | –
